Inhibition data for 10 compounds are collected here from US6828316B2, “Diamide compound and medicine containing the same” (Kowa Co., Ltd., priority 1996, dated 2004).

Molecules are shown by their SMILES. Where a name gives a salt, the structure may show the parent alone.

For orientation: inhibition means how much of the control response was suppressed. The low end stands for little suppression, the high end for strong suppression.

This assay relates to production of IgE antibody. The assay can be described thus: Evaluation of inhibitory effect on production of IgE antibody. Format: cell-based. Particulars: B-cell; test agent at a concentration of 10^−5 M; mouse (Balb/C) spleen B cells cultured with LPS then mouse IL-4; IgE in culture supernatant by ELISA. On the procedure: Evaluation of Inhibitory Effect on Production of IgE Antibody
A spleen was enucleated from a mouse (Balb/C, male, aged 8 weeks) and shredded in 0.3% BSA/HBSS to prepare single cells by means of a 200-mesh screen. Further, the single cells were hemolyzed by 0.75% ammonium chloride-17 mM Tris solution to prepare a splenocyte suspension (1×10^7/ml) using RPMI 1640 medium/25 mM HPES/0.3% BSA. After the suspension was reacted with a mouse anti-mouse Thy-1.2 monoclonal antibody at 4° C. for 1 hour, the reaction mixture was centrifuged, and the sediment cells were suspended again (1×10^7/ml, RPMI/HPES/BAS). After the suspension was then reacted with a low-cytotoxic rabbit complement (product of Cedarlane Co.) at 37° C. for 1 hour, killed cells were removed by specific gravity centrifugation using lympholyte M (product of Cedarlane Co.) to obtain a B cell fraction as viably cells.
After B cells (10^5/0.2 ml/well) were cultured for a day together with LPS (E. coli 026:B6, product of DIFCO Co.) using a 96-well plate, mouse IL-4 (product of Genzyme Co.) was added to conduct culture further for 7 days.
Each test agent was added on the first day of the culture, and the amount of IgE in a culture supernatant was measured by ELISA, thereby calculating out the inhibitory effect of the agent on the production of an IgE antibody.
(In general: An ELISA detects its analyte on a solid surface through an enzyme-linked reagent.)
Compound `O=C(/C=C/C=C/c1ccccc1)N1CCCN(C(=O)/C=C/C=C/c2ccccc2)CC1` [Example 1, 1,4-bis[5-phenylpenta-(2E,4E)-dienoyl]hexahydro-1,4-diazepine] gave an inhibition at 10 µM of 100%.

As to `COc1cc(/C=C/C=C/C(=O)N2CCCN(C(=O)/C=C/C=C/c3cc(OC)c(OC)c(OC)c3)CC2)cc(OC)c1OC` [Example 17, 1,4-bis[5-(3,4,5-trimethoxyphenyl)-penta-(2E,4E)-dienoyl]hexahydro-1,4-diazepine], 10 µM produced 100% inhibition.

Compound `O=C(/C=C/C=C/c1ccccn1)N1CCCN(C(=O)/C=C/C=C/c2ccccn2)CC1` [Example 19, 1,4-bis[5-(2-pyridyl)penta-(2E,4E)-dienoyl]hexahydro-1,4-diazepine] displayed an inhibition at 10 µM of 20%.

`O=C(/C=C/C=C/c1cccc2cccnc12)N1CCCN(C(=O)/C=C/C=C/c2cccc3cccnc23)CC1` [Example 25, 1,4-bis[5-(8-quinolyl)penta-(2E,4E)-dienoyl]hexahydro-1,4-diazepine] had an inhibition at 10 µM of 100%.

Turning to `COc1cc(/C=C/C=C/C(=O)N2CCN(C(=O)/C=C/C=C/c3cc(OC)c(OC)c(OC)c3)CC2)cc(OC)c1OC` [Example 29, 1,4-bis[5-(3,4,5-trimethoxyphenyl)-penta-(2E,4E)-dienoyl]piperazine], the inhibition at 10 µM is 100%.

Consider `O=C(/C=C/C=C/c1cccc2cccnc12)N1CCN(C(=O)/C=C/C=C/c2cccc3cccnc23)CC1` [Example 32, 1,4-bis[5-(8-quinolyl)penta-(2E,4E)-dienoyl]piperazine], for which testing at 10 µM gave an inhibition of 85%.

As to `COc1cc(/C=C/C=C/C(=O)N2CCN(C(=O)/C=C/C=C/c3cc(OC)c(OC)c(OC)c3)C(C(=O)O)C2)cc(OC)c1OC` (stereo not shown) [Example 34, 1,4-bis[5-(3,4,5-trimethoxyphenyl)-penta-(2E,4E)-dienoyl]piperazine-2-carboxylic acid], 10 µM produced 90% inhibition.

The compound `COc1cc(/C=C/C=C/C(=O)N2CCN(C(=O)/C=C/C=C/c3cc(OC)c(OC)c(OC)c3)C(CN(C)C)C2)cc(OC)c1OC` (stereo not shown) [Example 36, 1,4-bis[5-(3,4,5-trimethoxyphenyl)-penta-(2E,4E)-dienoyl]-2-(N,N-dimethylaminomethyl)-piperazine hydrochloride] returned an inhibition at 10 µM of 100%.

`COc1cc(/C=C/C=C/C(=O)N2CCN(C(=O)/C=C/C=C/c3cc(OC)c(OC)c(OC)c3)c3ccccc32)cc(OC)c1OC` [Example 41, 1,4-bis[5-(3,4,5-trimethoxyphenyl)-penta-(2E,4E)-dienoyl]-1,2,3,4-tetrahydroquinoxaline]: 10 µM produced 100% inhibition.

`COc1cc(/C=C/C=C/C(=O)N2CCN(C(=O)/C=C/C=C/c3cc(OC)c(OC)c(OC)c3)c3ncccc32)cc(OC)c1OC` [Example 42, 1,4-bis[5-(3,4,5-trimethoxyphenyl)-penta-(2E,4E)-dienoyl]-pyrido[2,3-b]-1,2,3,4-tetrahydropyrazine] had an inhibition at 10 µM of 95%.
